Measurements taken from patent publication US20090275099A1 (priority 2004, published 2009).

Test system: human skin in organ culture
Test: RA-induced epidermal hyperplasia in human skin organ culture
Conditions: RA-exposed skin, Bz-423 5 μg/ml
Description: Replicate 2 mm full-thickness punch biopsies of sun-protected hip skin were obtained from young adult volunteers. The participation of human subjects in this project was approved by the University of Michigan Institutional Review Board, and all subjects provided written informed-consent prior to their inclusion in the study. Immediately upon biopsy, the tissue was immersed in culture medium consisting of Keratinocyte Basal Medium (KBM) (Cambrex Bioscience, Walkersville, Md.). KBM is a low-Ca^2+, serum-free modification of MCDB-153 medium optimized for high-density keratinocyte growth. It was supplemented with CaCl2 to bring the final Ca^2+ concentration to 1.4 mM. After transport to the laboratory on ice, the biopsies were incubated in a 24-well dish containing 250 μl of Ca^2+-supplemented KBM with or without additional treatments (e.g., RA and/or Bz-423). Cultures were incubated at 37° C. in an atmosphere of 95% air and 5% CO2. Other than to maintain the tissue in a minimal volume of medium, nothing further was done to ensure a strict air-liquid interface. Incubation was for 8 days, with change of medium and fresh treatments every second day. […] Average thickness values for untreated, retinoid exposed, and retinoid plus Bz-423-treated biopsies were determined. […]

CN1C(=O)C(Cc2ccc3ccccc3c2)N=C(c2ccc(O)cc2)c2cc(Cl)ccc21 (stereo not shown) [Bz-423]
histologic finding at high concentration: necrosis was observed
